Assay results taken from patent US8012995B1, “Pharmaceutically active sulfonamide derivatives” (Merck Serono SA, priority 1999, dated 2011).

What was measured:
JNK2 = JNK2 (Homo sapiens, UniProt P45984); test: JNK2 in vitro assay (SPA, GST-c-Jun phosphorylation); assay type: biochemical; conditions: amount necessary to achieve 50% inhibition, GST-c-Jun substrate
Description: (§1) JNK 2 and 3 in vitro assays: JNK3 and/or 2 assays are performed in 96 well MTT plates, by incubation of 0.5 μg of recombinant pre-activated GST-JNK or GST-JNK2 with 1 μg of recombinant, biotinylated GST-c-Jun and 2 μM ^33γ-ATP (2 nCi/μl), in the to presence or absence of sulfonamide inhibitors if formula I and in a reaction volume of 50 μl containing 50 mM Tris-HCl, pH 8.0; 10 mM MgCl2; 1 mM Dithiothreitol, and 100 μM NaVO4. The incubation is performed for 120 min. at R.T and stopped upon addition of 200 μl of a solution containing 250 μg of Streptavidine-coated SPA beads (Amersham, Inc.)^•, 5 mM EDTA, 0.1% Triton X-100 and 50 μM ATP, in phosphate saline buffer. After incubation for 60 minutes at RT, beads are sedimented by centrifugation at 1500×g for 5 minutes, resuspended in 200 μl of PBS containing 5 mM EDTA, 0.1% Triton X-100 and 50 μM ATP and the radioactivity measured in a scintillation β counter, following sedimentation of the beads as described above. By substituting GST-c Jun for biotinylated GST-1ATF2 or myelin basic protein, this assay can be used to measure inhibition of preactivated p38 and ERK MAP Kinases, respectively.
(§2) The values indicated in respect of JNK2 and 3, p38 and ERK2 refer to the IC50 (μM), i.e. the amount necessary to achieve 50% inhibition of said target (e.g. JNK2). From the above table it could be derived that said test compounds according to formula I do have a significant effect both on JNK2 and 3, but virtually no effect onto p38 and ERK2, thus delivering a quite selective inhibitory effect.

JNK3 = JNK3 (Homo sapiens, UniProt P53779); test: JNK3 in vitro assay (SPA, GST-c-Jun phosphorylation); assay type: biochemical; conditions: amount necessary to achieve 50% inhibition, GST-c-Jun substrate
Chain of JNK3 (P53779 whole entry, species assumed): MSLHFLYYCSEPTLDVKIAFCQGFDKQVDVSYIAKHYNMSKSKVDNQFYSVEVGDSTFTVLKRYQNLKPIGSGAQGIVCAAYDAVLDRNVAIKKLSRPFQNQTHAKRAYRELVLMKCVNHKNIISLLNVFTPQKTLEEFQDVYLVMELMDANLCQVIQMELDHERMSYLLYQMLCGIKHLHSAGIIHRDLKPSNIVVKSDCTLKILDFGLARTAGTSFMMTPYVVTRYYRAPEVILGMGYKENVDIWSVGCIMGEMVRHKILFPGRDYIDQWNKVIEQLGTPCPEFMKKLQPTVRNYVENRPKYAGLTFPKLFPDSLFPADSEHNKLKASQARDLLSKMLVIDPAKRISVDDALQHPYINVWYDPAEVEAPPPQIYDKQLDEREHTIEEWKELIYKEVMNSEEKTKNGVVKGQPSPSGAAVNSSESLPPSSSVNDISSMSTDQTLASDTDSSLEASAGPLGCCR
Description: as §1, §2

p38 = p38 (Homo sapiens, UniProt Q16539); test: p38 in vitro kinase assay (SPA, GST-ATF2 substrate); assay type: biochemical; conditions: amount necessary to achieve 50% inhibition
Chain of p38 (Q16539 whole entry): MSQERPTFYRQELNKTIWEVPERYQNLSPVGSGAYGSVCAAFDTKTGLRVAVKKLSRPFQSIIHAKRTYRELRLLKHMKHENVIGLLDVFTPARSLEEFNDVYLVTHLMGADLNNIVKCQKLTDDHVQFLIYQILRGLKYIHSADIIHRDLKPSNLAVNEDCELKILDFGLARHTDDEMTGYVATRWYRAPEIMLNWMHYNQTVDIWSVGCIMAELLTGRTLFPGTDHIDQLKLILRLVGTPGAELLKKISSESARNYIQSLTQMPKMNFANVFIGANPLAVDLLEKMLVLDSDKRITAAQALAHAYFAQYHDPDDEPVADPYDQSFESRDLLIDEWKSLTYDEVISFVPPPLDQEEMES
Description: as §1, §2

ERK2 = ERK2 (Homo sapiens, UniProt P28482); test: ERK2 in vitro kinase assay (SPA, myelin basic protein substrate); assay type: biochemical; conditions: amount necessary to achieve 50% inhibition
Chain of ERK2 (P28482 whole entry, species assumed): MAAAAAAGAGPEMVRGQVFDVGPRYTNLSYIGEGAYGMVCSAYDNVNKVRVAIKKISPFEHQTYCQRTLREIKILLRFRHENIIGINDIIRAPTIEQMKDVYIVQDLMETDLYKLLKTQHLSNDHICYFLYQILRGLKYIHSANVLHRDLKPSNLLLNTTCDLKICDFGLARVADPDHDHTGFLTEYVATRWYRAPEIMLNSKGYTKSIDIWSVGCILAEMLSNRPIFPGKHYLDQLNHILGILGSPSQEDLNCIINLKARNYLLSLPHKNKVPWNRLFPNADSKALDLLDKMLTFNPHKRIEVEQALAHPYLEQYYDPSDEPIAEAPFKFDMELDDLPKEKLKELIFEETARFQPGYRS
Description: as §1, §2

[1] = tested on: IL-2 release by PMA+Iono-stimulated Jurkat cells; test: IL-2 release assay (ELISA); assay type: cell-based; conditions: Homo sapiens, PMA+Ionomycine-stimulated Jurkat cells, 24 hours, read-out: % Inhibition of IL2 Production @3 uM
Description: Jurkat cells, a human T cell leukemia cell line (American Type Culture Collection # TIB 152) were cultured in RPMI 1640 medium (Gibco, BRL) supplemented with 10% of […] FCS, Glutamine and Penstrep. The cell suspension in the medium is diluted to give 2.10^6 cells/mL. The cells were plated (2.10^5 cells/well) on a 96-well plate containing different concentration of test compound (final concentration of compounds, 10, 3, 1, […], 0.1 μM). This mixture is incubated 30 minutes at 37° C. in a humidified CO2 atmosphere. Cells were then treated with 10 ul PMA+Ionomycine (0.1 μM and 1 μM final concentration) in all wells except negative control. In wells without compounds, 10 μl of RPMI 2% DMSO (=0.1% final) is added. Cells are incubated 24 hours at 37° C. and then the supernatant harvested (freeze at −20° C. if not used the same day) prior to performing IL-2 ELISA test on the supernatant.
IL-2 release into the medium by PMA+Iono-stimulated Jurkat cells, in presence or absence of test compounds is assayed by ELISA. Following the procedure described below
Transfer 100 μl capture antibody diluted in PBS at 5 μg/mL into a 96 well ELISA plate and incubate overnight at room temperature.
Aspirate each well and wash 3 times with Wash buffer. After the last wash, damp the plate.
1. Saturate with 200 μl PBS-10% FCS. Incubate 1 hour at room temperature.
2. Repeat the wash step 2.
• 1. Add 100 μl of sample or standard ([…]) and incubate 2 hours at room temperature. • 2. Wash 3 times. • 3. Add 100 μl of biotinylated anti-human IL-2 at 12.5 ng/mL. Incubate 2 hours at room temperature. • 4. Wash 3 times. • 5. Add 100 μl streptavidin-HRP (Zymed #43-4323) at 1:10′000. Incubate 30 minutes at room temperature. • 6. Wash 3 times • 7. Add 100 μl substrate solution (citric acid/Na2HPO4 (1:1)+H2O2 1:2000+OPD). Incubate 20-30 minutes at room temperature. • 8. Add 50 μl of stop solution to each well. • 9. Determine optical density using a microliter plate reader set to 450 nm with correction at 570 nm.

Hlr c-Jun HeLa cells = test: C-Jun reporter assay (Dual-Luciferase); assay type: cell-based; conditions: Homo sapiens, Hlr c-Jun HeLa cells transfected with pMEKK1
Description: Hlr c-Jun HeLa cells are cultured in DMEM High Glc supplemented with 10% FCS (Sigma), 2 mM Glutamine (Gibco), P/S, Hygromycin b 100 μg/mL and G418 250 μg/mL
The cell suspension are diluted with medium to give about 3.5×10^6 cells/mL and 1 mL of cell suspension are put onto 2 10 cm culture dishes containing 9 mL of culture medium.
• Control: 0.2 μg pTK Renilla, 5.8 μg pBluescript KS, 500 μl OPTIMEM (GIBCO), 18 μl Fugene 6 • Induced: 0.1 μg pMEKK1, 0.2 μg pTK Renilla, 5.7 μg pBluescript KS, 500 μl OPTIMEM (GIBCO), 18 μl Fugene 6 30′ RT
The transfection mixture is added to the plated cells. The plates are incubated over night at 37° C. in a humidified atmosphere of 5% CO2 in air
A 96 wells plate containing 100 μl of culture medium per well is prepared
Negative control (vehicle): 2 μl of DMSO is added to the 100 μl (in triplicate).
Compound: 2 μl of Hit compound stock dilution are added to the 100 μl (in triplicate).
The transfected cells are trypsinised and ressuspend in 12 mL of culture medium.
100 μl of the dilution are added to each of the 96 wells plate.
The plate is incubated over night at 37° C. in a humidified atmosphere of 5% CO2 in air
Dual-Luciferase™ Reporter Assay System (Promega)
The medium is removed from the plate and the cells washed two times with 100 μl PBS Completely remove the rinse solution before applying PLB reagent. Dispense into each culture well […] of 1×PLB. Place the culture plates on a rocking platform or orbital shaker with gentle
rocking/shaking to ensure complete and even coverage of the cell monolayer with 1×PLB. Rock the culture plates at room temperature for 15 minutes. Transfer 20 μl of the lysate into a white opaque 96 wells plate. Read in a luminometer.
• Inject 50 μl of Luciferase Assay Reagent II wait 5″, read 10″ • Inject 50 μl of Stop & Glo® Reagent wait 5″, read 10″ Check RLU Luciferase/RLU Renilla *1000

Chain of JNK2 (P45984 whole entry, species assumed): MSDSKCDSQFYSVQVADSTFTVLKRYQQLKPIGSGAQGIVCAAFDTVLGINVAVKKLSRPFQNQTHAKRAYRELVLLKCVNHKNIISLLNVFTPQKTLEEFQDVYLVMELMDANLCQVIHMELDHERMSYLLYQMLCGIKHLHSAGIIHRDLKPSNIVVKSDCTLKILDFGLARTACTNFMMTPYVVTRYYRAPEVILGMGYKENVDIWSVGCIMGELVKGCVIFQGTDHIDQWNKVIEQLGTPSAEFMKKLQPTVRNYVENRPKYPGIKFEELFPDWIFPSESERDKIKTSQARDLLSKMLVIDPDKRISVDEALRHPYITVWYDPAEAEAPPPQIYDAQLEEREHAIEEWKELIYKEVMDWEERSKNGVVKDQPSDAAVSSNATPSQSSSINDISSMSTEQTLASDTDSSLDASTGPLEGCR

| SMILES | IC50 (JNK2) | IC50 (JNK3) | IC50 (p38) | IC50 (ERK2) | inhibition at 3 µM [1] | inhibition at 10 µM (Hlr c-Jun HeLa cells) |
| --- | --- | --- | --- | --- | --- | --- |
| O=C(NCc1ccc(S(=O)(=O)N2CCC(C(=O)c3ccc(F)cc3F)CC2)s1)c1ccc(Cl)cc1 [Example 37, 4-chloro-N-[(5-{[4-(2,4-difluorobenzoyl)piperidin-1-yl]sulfonyl}thien-2-yl)methyl]benzamide] | 1190 nM | 680 nM | > 30000 nM | > 30000 nM | > 30% | > 30% |
| O=C(NCc1ccc(S(=O)(=O)N2CCCN(C(=O)Cc3ccccc3)CC2)s1)c1ccc(Cl)cc1 [Example 84, 4-chloro-N-[(5-{[4-(phenylacetyl)-1,4-diazepan-1-yl]sulfonyl}thien-2-yl)methyl]benzamide] | 1300 nM | 860 nM | > 30000 nM | > 30000 nM | > 30% | > 30% |
| O=C(NCc1ccc(S(=O)(=O)N2CCC(Nc3ccccc3)CC2)s1)c1ccc(Cl)cc1 [Example 86, N-({5-[(4-anilinopiperidin-1-yl)sulfonyl]thien-2-yl}methyl)-4-chlorobenzamide] | 1050 nM | 800 nM | > 30000 nM | > 30000 nM | > 30% | > 30% |
| O=C(NCc1ccc(S(=O)(=O)N2CCC(n3nnc4ccccc43)CC2)s1)c1ccc(Cl)cc1 [Example 91, N-[(5-{[4-(1H-1,2,3-benzotriazol-1-yl)piperidin-1-yl]sulfonyl}thien-2-yl)methyl]-4-chlorobenzamide] | 640 nM | 150 nM | > 30000 nM | > 30000 nM | > 30% | > 30% |
| O=C(NCc1ccc(S(=O)(=O)N2CCC(n3cnc4ccccc43)CC2)s1)c1ccc(Cl)cc1 [Example 109, N-[(5-{[4-(1H-benzimidazol-1-yl)piperidin-1-yl]sulfonyl}thien-2-yl)methyl]-4-chlorobenzamide] | 590 nM | 230 nM | > 30000 nM | > 30000 nM | > 30% | > 30% |
| O=C(NCc1ccc(S(=O)(=O)N2CCC(Nc3ccc(Cl)cc3)CC2)s1)c1ccc(Cl)cc1 [Example 120, 4-chloro-N-[(5-{[4-(4-chloroanilino)piperidin-1-yl]sulfonyl}thien-2-yl)methyl]benzamide] | 560 nM | 400 nM | > 30000 nM | > 30000 nM | > 30% | > 30% |
| O=C(NCc1ccc(S(=O)(=O)N2CCC(Nc3cccc(S(=O)(=O)CCO)c3)CC2)s1)c1ccc(Cl)cc1 [Example 131, 4-chloro-N-({5-[(4-{3-[(2-hydroxyethyl)sulfonyl]-anilino}piperidin-1-yl)sulfonyl]thien-2-yl}methyl)-benzamide] | 2230 nM | 710 nM | > 30000 nM | > 30000 nM | > 30% | > 30% |
| NS(=O)(=O)c1cccc(NC2CCN(S(=O)(=O)c3ccc(CNC(=O)c4ccc(Cl)cc4)s3)CC2)c1 [Example 155, N-{[5-({4-[3-(aminosulfonyl)anilino]piperidin-1-yl}sulfonyl)thien-2-yl]methyl}-4-chlorobenzamide] | 500 nM | 530 nM | > 30000 nM | > 30000 nM | > 30% | > 30% |
| O=C(NCc1ccc(S(=O)(=O)N2CCN(C(=O)c3cccc4ccccc34)CC2)s1)c1ccc(Cl)cc1 [Example 168, 4-chloro-N-[(5-{[4-(1-naphthoyl)piperazin-1-yl]sulfonyl}thien-2-yl)methyl]benzamide] | 1200 nM | 890 nM | > 30000 nM | > 30000 nM | > 30% | > 30% |
| COc1cccc(NC2CCN(S(=O)(=O)c3ccc(CNC(=O)c4ccc([N+](=O)[O-])cc4)s3)CC2)c1 [Example 204, 4-nitro-N-[(5-{[4-(3-methoxyanilino)piperidin-1-yl]sulfonyl}thien-2-yl)methyl]-benzamide] | 220 nM | 170 nM | > 30000 nM | > 30000 nM | > 30% | > 30% |
| COC(=O)c1cccc(NC2CCN(S(=O)(=O)c3ccc(CNC(=O)c4ccc([N+](=O)[O-])cc4)s3)CC2)c1 [Example 211, methyl 3-{[1-({5-[({4-nitrobenzoyl}amino)methyl]thien-2-yl}sulfonyl)piperidin-4-yl]amino}benzoate] | 390 nM | 270 nM | > 30000 nM | > 30000 nM | > 30% | > 30% |
| O=C(NCc1ccc(S(=O)(=O)N2CCC(n3nnc4ccccc43)CC2)s1)c1ccccc1O [Example 271, N-[(5-{[4-(1H-1,2,3-benzotriazol-1-yl)piperidin-1-yl]sulfonyl}thien-2-yl)methyl]-2-hydroxybenzamide] | 220 nM | 360 nM | > 30000 nM | > 30000 nM | > 30% | > 30% |
| COc1cccc(C(=O)NCc2ccc(S(=O)(=O)N3CCC(Nc4ccccc4[N+](=O)[O-])CC3)s2)c1 [Example 285, N-({5-[(4-{2-nitroanilino}piperidin-1-yl)sulfonyl]thien-2-yl}methyl)-3-methoxybenzamide] | 230 nM | 190 nM | > 30000 nM | > 30000 nM | > 30% | > 30% |
